These are literature values, as cited in patent publication US8853212B2, “Substituted aminotetrahydrothiopyrans and derivatives thereof as dipeptidyl peptidase-IV inhibitors for the treatment of diabetes” (Merck Sharp & Dohme Corp, priority 2010, dated 2014).

One data set addresses DPP-4 (Homo sapiens (Human), UniProt P27487).
A further data set relates to hematopoiesis. The following applies: mouse, cyclophosphamide-induced neutropenia.
The test system of the next data set is cardiac allograft. The following applies: rats; doubled from day 7.

DPP-4, sequence (P27487 39-766, species assumed): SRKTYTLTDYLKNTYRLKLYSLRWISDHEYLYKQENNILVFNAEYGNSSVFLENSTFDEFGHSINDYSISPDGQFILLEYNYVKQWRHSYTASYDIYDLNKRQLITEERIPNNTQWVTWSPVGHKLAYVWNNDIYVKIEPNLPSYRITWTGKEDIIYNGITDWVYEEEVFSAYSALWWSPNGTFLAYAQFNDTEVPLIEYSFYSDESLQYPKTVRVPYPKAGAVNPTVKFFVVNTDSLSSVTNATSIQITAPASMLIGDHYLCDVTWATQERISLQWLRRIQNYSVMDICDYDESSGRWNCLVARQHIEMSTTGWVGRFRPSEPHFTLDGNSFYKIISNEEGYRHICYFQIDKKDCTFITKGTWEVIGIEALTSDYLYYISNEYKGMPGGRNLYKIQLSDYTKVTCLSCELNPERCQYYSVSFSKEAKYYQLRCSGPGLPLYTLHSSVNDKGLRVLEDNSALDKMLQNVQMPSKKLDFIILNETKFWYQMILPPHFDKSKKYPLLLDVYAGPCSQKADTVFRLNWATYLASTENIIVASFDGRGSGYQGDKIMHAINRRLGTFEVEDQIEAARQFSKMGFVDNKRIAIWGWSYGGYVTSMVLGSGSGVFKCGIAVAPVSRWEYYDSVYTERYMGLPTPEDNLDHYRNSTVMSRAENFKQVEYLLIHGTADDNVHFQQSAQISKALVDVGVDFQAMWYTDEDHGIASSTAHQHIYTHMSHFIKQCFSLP

For the molecule diprotin A, the “degradation of GRF in plasma to GRF[3-44]” value on DPP-4 is reported as “prevented”.
On to `CC(C)[C@H](N)C(=O)N1CCC[C@H]1B(O)O` [Val-Bono-Pro], for which the hematopoiesis result with hematopoiesis was “stimulated hematopoiesis”.
With `CC(C)N1CCC(c2ccccc2)(c2ccccc2)CC1` [Prodipine, Pro-Pro-diphenyl-phosphonate], the cardiac allograft survival with cardiac allograft is 14 day.
